Data reported in patent US9394228B2, “Methods of treatment using lipid compounds” (PRONOVA BIOPHARMA NORGE AS, priority 2010, dated 2016).

Experiments:
[1] = test system: APOE*3Leiden.CETP transgenic mice; assay: Effects on in vivo atherosclerosis development in a mouse model
Text: The APOE*3Leiden.CETP transgenic mouse has proven to be representative of the human situation with respect to plasma lipoprotein levels and its responsiveness to hypolipidemic drugs (like statins, fibrates etc.) and nutritional intervention. APOE*3Leiden.CETP mice develop atherosclerotic lesions in the aorta resembling those found in humans with respect to cellular composition and morphological and immunohistochemical characteristics.
Female APOE*3Leiden.CETP mice were put on a Western-type diet (WTD) with 0.15% cholesterol and 15% saturated fat; resulting in plasma cholesterol levels of about 13-15 mM. After a 3 week run-in period on the WTD, the mice were sub-divided into 4 groups of 15 mice, control (no treatment), Compound A of Example 2 above, fenofibrate and a low-cholesterol diet. The groups were matched for body weight, plasma total cholesterol (TC), HDL cholesterol (HDL-C) and triglycerides (TG) after 4 h fasting (t=0).
The test substances were administered orally as admix to the Western-type diet. To facilitate the mixing of the compounds sunflower oil was added to a total oil volume of 10 mL/kg diet. Compound (A) was tested at initially at 0.1 mmol/kg bw/day and reduced to 0.04 mmol/kg bw/day at 4 weeks; the initial dose was based on a prior dose-finding study to establish the required dosage that would reduce VLDL/LDL cholesterol by 25-30%. The fenofibrate dose was initially 10 mg/kg bw/day, and later reduced to 4.2 mg/kg bw/day to parallel reductions in VLDL/LDL cholesterol induced by Compound A.
At t=0 and t=17 weeks, blood samples were taken after a 4 hour-fast period to measure plasma cholesterol and triglycerides. Atherosclerosis development in aortic root (total lesion area) was measured at sacrifice.
The results for total cholesterol (mM), HDL cholesterol (mM), lesion area (μm^2*1000) and undiseased segments (%) are shown in FIGS. 4, 5, 6, and 7, respectively.

[2] = biological target: T1, PPAR[…] (positive control GW7647, i.e. PPARα) (Homo sapiens, UniProt Q07869); assay: PPAR activation in vitro, mammalian-one-hybrid (M1H) GAL4-PPAR-LBD luciferase reporter assay; format: cell-based; conditions: efficacy of positive control GW7647 set to 100%; HEK293 cells; first PPAR[…] column
T1 construct: expressed in transfected cells; host or cells: HEK293
Experimental: (§1) Compounds (A)-(C) and a positive control were tested at six different concentrations in duplicate:
(§2) The positive controls were GW7647 (PPAR[…]), GW501516 (PPAR[…]) and rosiglitazone (PPAR[…]). The efficacy of the controls were set to 100%.
(§3) Assays were carried out in vitro using mammalian-one-hybrid assays (M1H) comprising GAL4-DNA binding domain-PPAR-LBD fusion constructs in conjunction with 5×GAL4-sites driven Photinus pyralis luciferase reporter constructs in transiently transfected HEK293 cells. The cells were transfected 4-6 hours and grown overnight before compounds were added. Compound incubation was 16-20 hours. Renilla reniformis luciferase, driven by a constitutive promoter, was included as internal control to improve experimental accuracy.

[3] = biological target: T2, PPAR[…] (positive control rosiglitazone, i.e. PPARγ) (Homo sapiens, UniProt P37231); assay: as above; format: cell-based; conditions: efficacy of positive control rosiglitazone set to 100%; HEK293 cells; third PPAR[…] column
T2 construct: expressed in transfected cells; host or cells: HEK293
Experimental: as §1, §2, §3

[4] = biological target: T3, PPAR[…] (positive control GW501516, i.e. PPARδ) (Homo sapiens, UniProt Q03181); assay: as above; format: cell-based; conditions: second PPAR[…] column; for Efficacy: efficacy of positive control GW501516 set to 100%, HEK293 cells; for EC50: transiently transfected HEK293 cells, compound incubation 16-20 hours
T3 construct: expressed in transfected cells; host or cells: HEK293
Experimental: as §1, §2, §3

T1 sequence (Q07869 239-466 limits assumed, species assumed): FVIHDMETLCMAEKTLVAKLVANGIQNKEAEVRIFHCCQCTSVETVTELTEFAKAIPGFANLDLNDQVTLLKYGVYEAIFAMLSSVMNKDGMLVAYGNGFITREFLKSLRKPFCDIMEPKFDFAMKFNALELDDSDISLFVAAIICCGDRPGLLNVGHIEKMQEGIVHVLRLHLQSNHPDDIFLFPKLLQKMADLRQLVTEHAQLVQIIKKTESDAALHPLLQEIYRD
T1 sequence (P04386 1-147 partner limits assumed, species assumed): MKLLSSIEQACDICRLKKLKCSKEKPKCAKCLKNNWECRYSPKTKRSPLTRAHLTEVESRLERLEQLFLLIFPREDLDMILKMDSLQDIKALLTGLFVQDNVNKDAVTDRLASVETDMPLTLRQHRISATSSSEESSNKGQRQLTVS
T3 sequence (Q03181 211-439 limits assumed): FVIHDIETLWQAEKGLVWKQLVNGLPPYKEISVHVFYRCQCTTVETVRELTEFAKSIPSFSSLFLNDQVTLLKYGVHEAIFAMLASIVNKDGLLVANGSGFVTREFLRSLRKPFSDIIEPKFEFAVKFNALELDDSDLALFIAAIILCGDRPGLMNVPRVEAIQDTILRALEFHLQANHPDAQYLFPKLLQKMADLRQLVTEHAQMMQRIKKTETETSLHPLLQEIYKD
T3 sequence (P04386 1-147 partner limits assumed): as the sequence (P04386 1-147 partner limits assumed, species assumed) above
T2 sequence (P37231 238-503 limits assumed): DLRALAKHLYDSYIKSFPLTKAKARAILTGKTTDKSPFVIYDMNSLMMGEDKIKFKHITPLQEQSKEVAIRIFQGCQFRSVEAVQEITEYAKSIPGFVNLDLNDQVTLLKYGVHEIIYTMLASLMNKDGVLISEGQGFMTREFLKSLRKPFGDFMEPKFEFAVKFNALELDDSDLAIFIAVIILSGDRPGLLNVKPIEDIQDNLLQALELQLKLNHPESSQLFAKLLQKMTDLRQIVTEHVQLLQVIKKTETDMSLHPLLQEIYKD
T2 sequence (P04386 1-147 partner limits assumed): as the sequence (P04386 1-147 partner limits assumed, species assumed) above

| Compound | development of atherosclerosis ([1]; APOE*3Leiden.CETP transgenic mice, overall conclusion) | lesion area ([1]; aortic root, at sacrifice, as compared to control, p<0.003) | total cholesterol ([1]; as compared to control, p<0.001, oral admix to Western-type diet, 0.1 then 0.04 mmol/kg bw/day, t=17 weeks) | HDL cholesterol ([1]; as compared to control, p<0.003, oral admix to Western-type diet, 0.1 then 0.04 mmol/kg bw/day, t=17 weeks) | Efficacy [2] [%] | Efficacy [3] [%] | Efficacy [4] | EC50 [4] |
| --- | --- | --- | --- | --- | --- | --- | --- | --- |
| CC/C=C\C/C=C\C/C=C\C/C=C\C/C=C\CCCCOC(CC)C(=O)O (stereo not shown) [Compound A, 2-((5Z,8Z,11Z,14Z,17Z)-icosa-5,8,11,14,17-pentaenyloxy)butanoic acid] | inhibits | significantly decreased | significantly decreased | significantly increased | 82 | 22 | inactive | inactive |
| CC/C=C\C/C=C\C/C=C\C/C=C\C/C=C\CCCCO[C@@H](CC)C(=O)O [Compound B, (S)-2-((5Z,8Z,11Z,14Z,17Z)-icosa-5,8,11,14,17-pentaenyloxy)butanoic acid] |  |  |  |  | 86 | 27 | inactive | inactive |
| CC/C=C\C/C=C\C/C=C\C/C=C\C/C=C\CCCCO[C@H](CC)C(=O)O [Compound C, (R)-2-((5Z,8Z,11Z,14Z,17Z)-icosa-5,8,11,14,17-pentaenyloxy)butanoic acid] |  |  |  |  | 54 | 25 | inactive | inactive |
